# Experimental data taken from patent publication US20180200233A1, “COMPOSITIONS FOR PREVENTING CANCERS ASSOCIATED WITH HUMAN PAPILLOMA VIRUSES” (Loma Linda University, priority 2015, published 2018).
# What was measured:
# GST-E6/His-caspase 8 = target: T1, GST-E6/His-caspase 8 (Human papillomavirus type 16, UniProt P03126); test: AlphaScreen bead-based assay, GST-E6/His-caspase 8 binding; parameters: species or system HPV 16
# T1 construct: made in house
# Protocol: FIGS. 2A-C are graphs providing data regarding inhibition of protein-protein interactions by 3-(1H-indol-1yl)propan-1-amine (1), three benzimidazole derivatives (2-4), and spinacine (5). Compounds, at the indicated concentrations (1.4 μM to 3.2 mM) were tested using a bead-based screening assay for their ability to inhibit three different protein/protein interactions: (FIG. 2A) GST-E6/His-caspase 8; (FIG. 2B) GST-E6/HisE6AP; and (FIG. 2C) GST-caspase 8/His-caspase 8. Binding in the presence of 1.4 μM of the test compound was set at 100%. Experiments were performed in triplicate, and error bars indicate the standard deviation.
# HPV E6 binds to caspase 8 (Garnett, T. O., M. Filippova, and P. J. Duerksen-Hughes, Accelerated degradation of FADD and procaspase 8 in cells expressing human papilloma virus 16 E6 impairs TRAIL-mediated apoptosis. Cell death and differentiation, 2006. 13(11): p. 1915-26), and myricetin can block the E6/caspase 8 interaction in vitro (Yuan, C. H., et al., Small molecule inhibitors of the HPV16-E6 interaction with caspase 8. Bioorganic & medicinal chemistry letters, 2012. 22(5): p. 2125-9). A bead-based assay based on AlphaScreen™ technology (Perkin-Elmer) is used to identify inhibitors of the E6/caspase 8 interaction (Yuan, C. H., et al., Small molecule inhibitors of the HPV16-E6 interaction with caspase 8. Bioorganic & medicinal chemistry letters, 2012. 22(5): p. 2125-9). The ActiProbe 2K (2,000 compounds) library was screened using the same approach. […] Analysis of the structures and physical/chemical characteristics of those molecules led to the selection of five additional compounds: 3-(1H-indol-1-yl)propan-1-amine methanesulfonate (1), benzimidazole (2), 1H-benzimidazole-1-methanol (3), 2-(methoxymethyl)-1H-benzimidazole (4), and spinacine (5) for further study (FIG. 1).
# To determine the dose-responsiveness of these five compounds, variable concentrations of those small molecules were first tested for their ability to inhibit E6/caspase binding. […] These molecules, which had been selected for their ability to interfere with E6/caspase 8 binding, were then tested to determine if they could also affect other interactions of E6, such as its binding to E6-associated protein (E6AP). The E6/E6AP interaction is required for the E6-mediated acceleration of p53 degradation (Huibregtse, J. M., M. Scheffner, and P. M. Howley, A cellular protein mediates association of p53 with the E6 oncoprotein of human papillomavirus types 16 or 18. The EMBO journal, 1991. 10(13): p. 4129-35).
# Alpha-Screen™ technology was used to assess the interactions between GST-E6, GST-caspase 8, His-E6AP, and His-caspase 8. Binding assays were performed in white 384-well plates (Perkin-Elmer) in a total volume of 25 μl as previously described (Tungteakkhun, S. S., et al., The interaction between human papillomavirus type 16 and FADD is mediated by a novel E6 binding domain. Journal of virology, 2008. 82(19): p. 9600-14). Briefly, 5 μl (50 ng) of GST-E6 and 5 μl (87.5 ng) of His-caspase 8 were included in each reaction mixture with 5 μl blocking buffer (0.5 mg BSA, 0.5% Tween 20 in PBS) in the absence or presence of 10 μM of each test chemical. […] The mixture was incubated in the dark at room temperature overnight, and the emitted signal was detected using the Envision Multilabel plate reader (Perkin-Elmer). In the presence of test chemicals, the binding affinity was calculated as a percentage of the binding in the presence of carrier only (DMSO).
# [1] = tested on: caspase 8 level in SiHa cells; test: Immunoblot of caspase 8 level in SiHa cells; type: cell-based, human; details: 50, 100 and 200 μM for 24 hr
# Protocol: FIGS. 6A-B is an immunoblot and FIG. 6B is a graph showing that treatment with myricetin and spinacine (5) increased cellular levels of caspase 8 and p53. (FIG. 6A) SiHa cells (1×10^6 per well) were seeded into a 6-well plate and allowed to incubate overnight. The indicated concentrations of myricetin and spinacine were added, then cells were incubated for 24 h. Cells were then washed in 1×PBS, then harvested and the resulting level of caspase 8 was measured by immunoblot. (FIG. 6B) SiHa and C33A cells (1×10^6 per well) were seeded into a 6-well plate and allowed to incubate overnight. 200 μM of myricetin and 100 μM spinacine were added together with 4 μg/ml mitomycin C and incubated for 24 h. The resulting level of p53 was measured by ELISA, and the level of p53 found in untreated cells was set at 100%. […]
# If this ability is due to inhibition of E6 functions, then an increase in the levels of caspase 8 and p53 should be observable in SiHa cells following treatment with myricetin and spinacine. To test this prediction, SiHa cells were treated with 50, 100, and 200 μM of myricetin or spinacine for 24 hr, and then measured the level of caspase 8 by immunoblot. […]
# Cells (1×10^6) were collected and washed with PBS. […] Signals were measured using the Odyssey Infrared Imaging system (LI-COR Biosciences) and expressed in relative light units.
# T1 sequence (P03126 whole entry): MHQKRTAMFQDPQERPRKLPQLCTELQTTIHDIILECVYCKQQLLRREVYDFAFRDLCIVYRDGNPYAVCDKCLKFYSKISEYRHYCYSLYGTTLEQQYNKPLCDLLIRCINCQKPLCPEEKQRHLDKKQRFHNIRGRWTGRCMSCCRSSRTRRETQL
SMILES,"EC50 for GST-E6/His-caspase 8 interaction (GST-E6/His-caspase 8; bead-based assay, compounds tested 1.4 μM to 3.2 mM)","inhibition of E6/caspase 8 binding (in words) (GST-E6/His-caspase 8; FIG. 2A, primary screen at 10 μM)",caspase 8 levels in SiHa cells (in words) [1]
"OCn1cnc2ccccc21 [Compound 3, 1H-benzimidazole-1-methanol]",No Inhibition,,
"O=C(O)C1Cc2[nH]cnc2CN1 (stereo not shown) [Compound 5, 4,5,6,7-Tetrahydro-1H-imidazo(4,5-c)pyridine-6-carboxylic acid]",,dose-dependent inhibition,increase in caspase 8 at doses from 50 to 200 μM
"O=c1c(O)c(-c2cc(O)c(O)c(O)c2)oc2cc(O)cc(O)c12 [Myricetin, reference compound]",,,increase in caspase 8 levels at doses of 100 μM and 200 μM
